The values that follow come from PubChem BioAssay AID2305 (GlaxoSmithKline (GSK), 2010).

Molecules are shown by their SMILES.

The test system of the assay is P. falciparum 3D7 growth, pLDH absorbance. Kind of assay: blood-stage malaria parasite growth potency – strain 3D7, dose response (AID 2305).
Consider `O=c1ccc2ccc(F)c3c2n1CC3CN1CCC(NCc2cccc(-c3ccccc3F)c2)CC1` (stereo unspecified), for which the half-inhibitory concentration (IC50) (usually the concentration at which inhibition is half-maximal) stood at 1100 nM. In other words, the single-digit micromolar range.

In turn, `CN(c1ccc2c(c1)nc(NC(=O)C1(c3cc(F)ccc3F)CC1)n2C)c1ccnc(Nc2cccc(CS(C)(=O)=O)c2)n1` yielded a 50% inhibitory concentration (IC50) of 1100 nM.

Take `CCc1nc2c(N)nc(N)nc2nc1-c1ccc(OC)cc1`: the concentration for half-maximal inhibition (IC50) was determined as 1200 nM.

Consider `COc1ccc(-c2cccc(CNC3CCN(C)CC3)c2)cc1S(=O)(=O)NCc1ccccc1`, for which the IC50 stood at 870 nM.

Compound `CCN(CCCN1CCCCC1)c1cc(C)nc(Nc2ccc(C)cc2C(F)(F)F)n1` returned a concentration for half-maximal inhibition (IC50) of 540 nM.

In turn, `O=C(C=Cc1ccc(Cl)c(Cl)c1)NC1CCN(CCc2ccccc2)CC1` gave an IC50 of 590 nM.

Compound `COc1ccccc1NC(=O)NC1CCN(CCCCCNC(=O)/C=C/c2ccc(Cl)c(Cl)c2)CC1` gave an IC50 of 750 nM. This IC50 and that of the compound before are within 1.5-fold of each other.

On to `COc1ccc(CNCc2cccc(-c3cccc(-c4nc5ccc(F)cc5[nH]4)c3)c2)cc1`, for which the 50% inhibitory concentration (IC50) is 300 nM.

`O=C(Nc1cccc(F)c1)NC1CCN(CCCCCNC(=O)[C@@H]2C[C@H]2c2ccc(Cl)c(Cl)c2)CC1` showed an IC50 of 760 nM.

For the compound `CCc1ccc(-c2cnc(N)c3cc(-c4ccnc(N)n4)ccc23)cc1`, the 50% inhibitory concentration (IC50) stood at 1350 nM.

Compound `c1ccc2c(NCCCCCCCCCNc3ccnc4ccccc34)ccnc2c1` had an IC50 of 120 nM.

Consider `CCCC(CNCc1ccc(Cl)c(C(F)(F)F)c1)CNc1nc2ccncc2[nH]1` (stereo unspecified), for which the half-maximal inhibitory concentration (IC50) amounted to 290 nM.

Compound `CN1CCC(N2CCN(Cc3ccc(-c4cccc(-c5nc6ccc(F)cc6[nH]5)c4)cc3)CC2)CC1` came in with a 50% inhibitory concentration (IC50) of 170 nM.

As for `CN(C)CC(=O)NCC(NCCCNc1cc(=O)c2ccccc2[nH]1)c1cc(Br)cc(Br)c1` (stereo unspecified), the IC50 came to 1050 nM.

For the compound `CNC(=O)Cc1ccc(C(=O)Nc2cccc(-c3cccc(-c4nc5c(C)cccc5[nH]4)c3)c2)cc1`, the concentration for half-maximal inhibition (IC50) stood at 530 nM.

As for `Cc1nc(C)c(-c2ccc(Oc3ccc(OC(F)(F)F)cc3)cc2)c(OC(=O)c2ccc(CN(C)C)cc2)c1Cl`, the IC50 stood at 140 nM.

`CC(=O)Nc1ccc(CN2CCC(N(C)c3cc(NC(=O)c4cccs4)ccn3)CC2)cc1` returned an IC50 of 890 nM. Compared with the last compound, the IC50 is about 6.4-fold higher.

For the compound `COc1ccc(-c2nc3c(NCc4ccccc4)nccc3[nH]2)c(OC)c1`, the IC50 was found to be 780 nM.

For `O=C(N[C@@H](Cc1ccccc1)C(=O)NCCN1CCOCC1)c1ccc(O)c(-c2ccc(Cl)c(Cl)c2)c1`, the IC50 was found to be 920 nM.

`Fc1cccc(Nc2nc(NCCc3ccc(Cl)cc3)nc(Nc3cccc(F)c3)n2)c1` yielded an IC50 of 1070 nM.

Take `Cc1[nH]nc2ccc(-c3ccc4nccc(N5CCC(N)CC5)c4c3)cc12`: the concentration for half-maximal inhibition (IC50) amounted to 590 nM.

Compound `O=C(NC1CCC(CN2CCC(c3c[nH]c4ccccc34)CC2)CC1)c1cn(Cc2ccccc2)c2ccccc12` (stereo unspecified) registered an IC50 of 1130 nM.

Take `O=C(NCc1cccc(Br)c1)c1ccc(CNC2CCN(Cc3ccccc3)CC2)cc1`: the half-inhibitory concentration (IC50) was 870 nM. The IC50 values of the last two compounds are within 1.5-fold of each other.

Regarding `COc1ccc(CCNC(C)Cc2ccc(C(=O)Nc3ccc(CC(C)NCCc4cccc(Cl)c4)cc3)cc2)cc1` (stereo unspecified), the half-maximal inhibitory concentration (IC50) is 250 nM.

As to `Oc1ccc2[nH]c(-c3cccc(F)c3)nc2c1CNCc1ccccc1`, the IC50 was 920 nM.

`COc1cc2nc(N3CCN(C(=O)c4ccc(N(C(=O)OC(C)(C)C)C(=O)OC(C)(C)C)cc4)CC3)nc(N)c2cc1OC` came in with a half-maximal inhibitory concentration (IC50) of 1000 nM.

In turn, `COc1cccc(CCc2c(CCNCCCCCCNCCc3ccccc3)ccc(OC)c2OC)c1` yielded an IC50 of 720 nM. This IC50 and that of the compound before are within 1.5-fold of each other.

Consider `NS(=O)(=O)c1cncc(-c2ccc3nccc(-c4cn[nH]c4)c3n2)c1`, for which the IC50 was determined as 530 nM.

Regarding `CN1CCC[C@H]1COc1ccc(CN2CC[C@H](NC(=O)c3ccc(Cl)c(Cl)c3)C2)cc1Br`, the IC50 came to 980 nM. This IC50 is about 1.8-fold higher than that of the compound before.

`C[C@@H](Oc1cc(-n2cnc3ccc(NC(=O)CCN4CCCCC4)cc32)sc1C(N)=O)c1ccccc1Cl` returned an IC50 of 990 nM.

`Cc1cccc(Nc2nccc(NCC(O)c3ccc(C(F)(F)F)cc3)n2)c1` (stereo unspecified) returned a half-inhibitory concentration (IC50) of 560 nM.

With `NC(N)=NC(=O)Nc1cc(Cl)c(F)c(Cl)c1`, the concentration for half-maximal inhibition (IC50) was determined as 640 nM.

Take `Fc1ccc2nc(-c3ccc(-c4cccc(CN5CCN(CCN6CCOCC6)CC5)c4)cc3)[nH]c2c1`: the IC50 worked out at 140 nM.

In the case of `Cc1cccc(CNc2nc(C)cc(NCCC(=O)Nc3ccccc3)n2)c1`, the IC50 was 1050 nM.

Compound `c1ccc(COc2ccc(Nc3ncnc4cnc(-c5ccc(CN6CCCCC6)o5)cc34)cc2)cc1` returned a 50% inhibitory concentration (IC50) of 970 nM. This IC50 and that of the compound before are within 1.5-fold of each other.

For `NC1=NC(c2ccccc2)(c2ccccc2)C(=O)N1Cc1ccccc1Br`, the IC50 was found to be 860 nM. This IC50 and that of the compound before are within 1.5-fold of each other.

In turn, `Cc1cc(=O)[nH]c2cc(Nc3ccnc(Nc4cccc(C(N)=O)c4)n3)ccc12` registered a concentration for half-maximal inhibition (IC50) of 1520 nM.

Compound `Cc1ccc(C)c(NC(=O)Nc2ccc(C)c(-c3ccc(C(=O)Nc4ccncc4)cc3)c2)c1` registered a half-inhibitory concentration (IC50) of 620 nM.

Consider `COc1ccc(-c2nc3c(N)nc(N)nc3nc2-c2ccccc2Cl)cc1` (tested in a mixture with another compound), for which the half-maximal inhibitory concentration (IC50) was 550 nM.

Consider `CC(C)Cn1cc(C2CCN(CCN3CCC(CNC(=O)c4ccc(-c5ccc(C(F)(F)F)cc5)cc4)CC3)CC2)c2ccccc21`, for which the IC50 was 750 nM.

Regarding `CN(C)CCOc1cc(NC(=O)Nc2ccc(Cl)cc2C(F)(F)F)ccc1I`, the IC50 was 930 nM.

As for `COc1cccc(C(=O)Nc2ccc(S(=O)(=O)c3cc4c(cc3OC)CCN(C)CC4)cc2)c1`, the half-maximal inhibitory concentration (IC50) turned out to be 1100 nM. This IC50 and that of the compound before are within 1.5-fold of each other.

In the case of `CCNc1cc(C)nc(Nc2ccc(NC(=O)C3CCCC3)cc2)n1`, the IC50 came to 1120 nM.

The compound `N#Cc1ccc(N(CCOc2ccc(Cl)c(F)c2)Cc2ccccc2C(F)(F)F)cc1C(F)(F)F` returned a 50% inhibitory concentration (IC50) of 680 nM.

Compound `NC(N)=NCCN(Cc1ccccc1)c1ccc(Cl)cc1` came in with a concentration for half-maximal inhibition (IC50) of 50 nM.

The compound `CCCCCCN1CCCN(Cc2ccc(C(=O)Nc3ccc(F)c(F)c3)cc2)CC1` had a half-maximal inhibitory concentration (IC50) of 610 nM.

`O=C(Nc1ccc(Cl)cc1)Nc1ccc(-c2cccc(-c3nc4ccc(F)cc4[nH]3)c2)cc1` displayed an IC50 of 290 nM.

For the compound `Fc1ccc2nc(-c3cccc(-c4ccc(CNCC5CCCO5)cc4)c3)[nH]c2c1` (stereo unspecified), the half-inhibitory concentration (IC50) was determined as 540 nM.

For the compound `CC1CN=C(c2ccc(NC(=O)c3ccc(C(=O)Nc4ccc(C5=NCC(C)N5)cc4)cc3)cc2)N1` (stereo unspecified), the IC50 was 30 nM.

Regarding `O=C(c1cc(C(=O)Nc2ccccc2F)c(=O)n(-c2ccccc2F)c1)c1cc(Cl)ccc1O`, the IC50 is 710 nM.

Regarding `COc1ccc2nccc([C@@H](O)CN3CCC(NCCOc4ccccc4[N+](=O)[O-])CC3)c2c1`, the IC50 is 380 nM.

As for `Cn1nccc1C(=O)NCCNCc1cccc(-c2ccc(-c3nc4ccc(C(F)(F)F)cc4[nH]3)cc2)c1`, the IC50 was found to be 120 nM.

Turning to `Cc1cccc2[nH]c(-c3ccc(-c4ccc(C(=O)NCCc5cn(C)cn5)cc4)s3)nc12`, the IC50 was 960 nM.

`CC(C)COc1ccc(Cl)cc1Nc1nc(-c2nc3ccccc3[nH]2)cs1` registered a half-maximal inhibitory concentration (IC50) of 880 nM.

`CC(C)(C)C1CC(=O)C[C@@H]2C(=O)N(c3ccc(Br)cc3)C(=O)[C@H]12` (stereo partly specified) displayed an IC50 of 930 nM.

In the case of `Cc1cccc2[nH]c(-c3cccc(-c4cccc(NC(=O)CCc5cnc[nH]5)c4)c3)nc12`, the half-maximal inhibitory concentration (IC50) is 550 nM.

In the case of `O=C(Nc1ccon1)c1cc(-c2cccnc2)nc2ccc(Br)cc12`, the IC50 is 740 nM.

`COc1ccc2nccc(N3CCC(SCCNCc4cc5c(cn4)OCCO5)C3)c2n1` (stereo unspecified) gave an IC50 of 770 nM.

Compound `CCCCCCCCNCc1c(O)ccc2ccccc12` gave an IC50 of 740 nM.

Regarding `NC[C@H](CC1CCCCC1)NC(=O)c1ccc(-c2ccnc3[nH]ccc23)s1`, the 50% inhibitory concentration (IC50) was 950 nM.

Compound `COc1ccc2nccc([C@@H](O)CN3CCC(NCc4cc5cc(Cl)ccc5[nH]4)CC3)c2c1` gave an IC50 of 130 nM.
